Measured values reported in patent US12029751B2, “Therapeutic agent for nervous system disease” (OSAKA UNIVERSITY, priority 2017, dated 2024).

Experiments:
[1] = tested on: tMCAO model C57BL/6J mice; assay: Brain ischemic lesion volume by TTC staining in transient middle cerebral artery occlusion (tMCAO) model; type: in vivo, mouse; conditions: 2 days after tMCAO surgery
From the text: Eight- to 9-week-old male C57BL/6J mice (about 24 g) were used. A probe for a laser Doppler blood flow meter was placed on the right skull such that blood flow in the middle cerebral artery could be monitored. The right cervical region was cut and opened, and the external carotid artery was ligated. Then, the common carotid artery was cut, and a nylon thread was inserted into the common carotid artery, and the tip was advanced while the blood flow was checked using a blood flow monitor. When the tip reached the bifurcation of the middle cerebral artery and a decrease in blood flow was observed, this state was held for 1 hour at a rectal temperature of 37° C. Then, the nylon thread was removed, and the common carotid artery was ligated. In order to administer methylcobalamin continuously, an osmotic minipump was placed and left in the dorsal subcutaneous space. […]
At 2 days after the surgery, the mouse (Example 4-1) was sacrificed, and the cerebrum was excised. […] Images were obtained by a stereoscopic microscope, the ischemic lesion area in each slice was calculated, and all ischemic lesion areas of the cerebrum slices were summed up to calculate an ischemic lesion volume. The ischemic lesion area in each slice was calculated by the following formula: Area of unaffected hemisphere—area of affected side intact portion.

[2] = tested on: rat sciatic nerve crush injury model; assay: Nerve regeneration after sciatic nerve injury (axons, myelinated axons, myelination rate); type: in vivo; conditions: for Myelination ratio / Number of axons / Number of myelinated axons: POD14
From the text: Six-week-old male Wistar rats (about 200 g) were used. The left sciatic nerve was exteriorized, and crush injury of the sciatic nerve was made on the proximal side by forceps. The nerve was crushed for 10 seconds three times at 10-second intervals. The fascia and skin were sutured using 3-0 nylon. A non-injury group which underwent only sciatic nerve exposure, an untreated group, and a methylcobalamin treatment group were compared. To administer methylcobalamin continuously, an osmotic minipump was placed and left in the dorsal subcutaneous space, and methylcobalamin was administered at a dose of 1 mg/kg/day. In an untreated group, physiological saline was administered instead of methylcobalamin according to the same procedure.
At 1, 3, 7, and 14 days after the surgery, rats were anesthetized with an anesthetic agent. The left sciatic nerve was collected, fixed with 4% PFA for 7 days and with 20% sucrose for 24 hours, and the fixed nerve was freeze-embedded. The embedded tissue was sliced into a 5-μm-thick slice in a nerve short-axis direction and placed on a glass slide. Slices were obtained from 5 positions of 2.5 mm in the proximal direction from an injured region, the injured region, and 2.5, 5.0, and 7.5 mm in the distal direction. The slices were dried for 1 hour and fixed with 95% methanol for 30 minutes. The fixed slices were blocked and allowed to react with primary antibodies at 4° C. overnight. The cells were further allowed to react with a secondary antibody at room temperature for 1 hour so that the nuclei were labeled with DAPI.
The primary antibodies used were a mouse anti-CD68 monoclonal antibody (Abcam), a rabbit anti-iNOS monoclonal antibody (Abcam), a rabbit anti-CD206 monoclonal antibody (Abeam), a rabbit anti-neurofilament 200 (NF 200) polyclonal antibody (SIGMA), and a mouse anti-myelin basic protein (MBP) monoclonal antibody (Calbiochem). The secondary antibodies used were an Alexa 488-labeled goat anti-mouse IgG antibody (Life Technologies), an Alexa 488-labeled goat anti-rabbit IgG antibody (Life Technologies), an Alexa 568-labeled goat anti-mouse IgG antibody (Life Technologies), and an Alexa 568-labeled goat anti-rabbit IgG antibody (Life Technologies).
Effects of methylcobalamin on nerve regeneration after sciatic nerve injury were analyzed by an immunohistological evaluation method. Specifically, the analysis was carried out as follows. Transvers sections of an injured sciatic nerve obtained at 2 weeks after sciatic nerve injury were used for evaluation. As in the macrophage evaluation, evaluations were carried out for the sections at 2.5 mm in the proximal direction from an injury site, the injury site, and 2.5, 5.0, and 7.5 mm in the distal direction. Regenerated axons were labeled with NF 200, and myelin sheaths were labeled with MBP. The myelination rate of the regenerated axons was calculated by the following formula: Myelination rate (%)=number of myelinated axons per mm^2/number of axons per mm^2×100. More specifically, the analysis was performed in the same manner as in Example 7.

[3] = tested on: cerebral cortical neurons; assay: Neurite outgrowth assay (axon outgrowth promoting effect); type: cell-based, rat; conditions: for average length of axons: 72 hours after cell seeding
From the text: Cerebral cortical neurons were collected and cultured by a conventional method. Cerebral cortex was dissected from a fetus of a Sprague-Dawley (SD) rat (18th day of pregnancy) and recovered in ice-cooled Dulbecco's Modified Eagle Medium (DMEM) containing 10% fetal bovine serum (FBS) and 1% penicillin/streptomycin. The pia mater and blood vessels were removed, and the remaining cerebral cortex was transferred to DMEM (containing 1% penicillin/streptomycin and no FBS) and cut into small pieces having a size of 1 mm by surgical scissors. Papain (final concentration, 2 mg/ml) was added to the cell mixture, and the mixture was allowed to react at 37° C. for 30 minutes. DNase I (70 U/ml) was added to the reaction mixture and reaction was carried out for 30 seconds. Then, DMEM containing 10% FBS and 1% penicillin/streptomycin was added to terminate the reaction. The cell mixture was centrifuged at 800 rpm, the residue was re-suspended in DMEM containing 10% FBS and 1% penicillin/streptomycin, and the suspension was seeded on a dish coated with poly-L lysine (PLL). At 4 hours after the cell seeding, the medium was replaced with Neurobasal medium (containing 10% B27 supplement and 1% penicillin/streptomycin).
The cerebral cortical neurons (Example 1-1) were seeded, and the drug was added in different concentrations at 24 hours. The concentrations of methylcobalamin added were 1, 10, and 100 nM and 1, 10, and 100 μM. At 72 hours after the cell seeding, immunofluorescent staining was performed using an anti-TuJ1 antibody, and the lengths of axons (the longest neurite length per neuron) were measured. The measurement was performed on cells that were not in contact with other cells. In each evaluation, at least 30 neural axons were measured, and the mean of the obtained values was calculated and designated as a measured value.

[4] = 5.0 and 7.5 mm in the distal direction, 2 weeks after injury
[5] = 2.5 mm in the proximal direction
[6] = injury site, 2 weeks after sciatic nerve injury, 1 mg/kg/day

`C/C1=C2/[N-][C@H]([C@H](CC(N)=O)[C@@]2(C)CCC(=O)NC[C@@H](C)OP(=O)([O-])O[C@H]2[C@@H](O)[C@@H](n3cnc4cc(C)c(C)cc43)O[C@@H]2CO)[C@]2(C)N=C(/C(C)=C3N=C(/C=C4N=C1[C@@H](CCC(N)=O)C\4(C)C)[C@@H](CCC(N)=O)[C@]\3(C)CC(N)=O)[C@@H](CCC(N)=O)[C@]2(C)CC(N)=O.[CH3-].[Co+3]` [MeCbl, methylcobalamin] was tested, and the ischemic lesion volume ([1]; 1 mg/kg/day continuous, osmotic minipump) was 28.8, the “reduction of ischemic lesion volume as compared with the control group” value ([1]; 1 mg/kg/day) was “about ½” and the “myelination rate as compared to the untreated group” value [2, 4] was “significant differences”. For the same compound, the “numbers of axons as compared to the untreated group” value [2, 4] was “significant differences”, the Myelination ratio ([2]; 2.5 mm in the distal direction) was 0.531 and the Number of axons ([2]; 2.5 mm in the distal direction) was 14478. The “Number of myelinated axons” value ([2]; 2.5 mm in the distal direction) was 7620, the Myelination ratio [2, 5] was 0.975 and the Number of axons [2, 5] was 16251. The “Number of myelinated axons” value [2, 5] was 15838, the Myelination ratio ([2]; 5.0 mm in the distal direction) was 0.253 and the Number of axons ([2]; 5.0 mm in the distal direction) was 16663. The “Number of myelinated axons” value ([2]; 5.0 mm in the distal direction) was 4400, the Myelination ratio ([2]; 7.5 mm in the distal direction) was 0.163 and the Number of axons ([2]; 7.5 mm in the distal direction) was 14678. For the same compound, the “Number of myelinated axons” value ([2]; 7.5 mm in the distal direction) was 2473, the Myelination ratio ([2]; Injury site) was 0.691 and the Number of axons ([2]; Injury site) was 14210. The “Number of myelinated axons” value ([2]; Injury site) was 9785, the “numbers of axons as compared to the untreated group” value [2, 6] was “significantly improved” and the “numbers of myelinated axons as compared to the untreated group” value [2, 6] was “significantly improved”. For the same compound, the average length of axons ([3]; MeCbl 1 nM) was 67.2 µm, the average length of axons ([3]; MeCbl 10 nM) was 71.2 µm and the average length of axons ([3]; MeCbl 100 nM) was 75.2 µm. The average length of axons ([3]; MeCbl 1 μM) was 79.9 µm, the “average length of axons” value ([3]; MeCbl 1 μM, listed as methylcobalamin) was “significantly promoted” and the average length of axons ([3]; MeCbl 10 μM) was 86.4 µm. For the same compound, the “average length of axons” value ([3]; MeCbl 10 μM, listed as methylcobalamin) was “significantly promoted”, the average length of axons ([3]; MeCbl 100 μM) was 66.2 µm and the “methylcobalamin concentration at peak of axon outgrowth promotion” value ([3]; concentrations 1 nM to 100 μM tested) was 10 µM.
